Source: paper PMC11088877, “AMP-activated protein kinase can be allosterically activated by ADP but AMP remains the key activating ligand” (Biochemical Journal, 2024)
Several values for one entry are separate records, joined by “and”; a condition that tells them apart may be missing. Equal values may be shown once. Read-outs that look alike come from different tables or passages of the source.

Tests used:
[1] = biological target: T1, human α2β2γ1 complex (WT) (Homo sapiens, UniProt P54619+P54646); assay: Allosteric activation of WT human α2β2γ1 AMPK complex by AMP and ADP; assay type: biochemical
T1 construct: made in house; host or cells: Escherichia coli
T1 sequence (P54619 whole entry): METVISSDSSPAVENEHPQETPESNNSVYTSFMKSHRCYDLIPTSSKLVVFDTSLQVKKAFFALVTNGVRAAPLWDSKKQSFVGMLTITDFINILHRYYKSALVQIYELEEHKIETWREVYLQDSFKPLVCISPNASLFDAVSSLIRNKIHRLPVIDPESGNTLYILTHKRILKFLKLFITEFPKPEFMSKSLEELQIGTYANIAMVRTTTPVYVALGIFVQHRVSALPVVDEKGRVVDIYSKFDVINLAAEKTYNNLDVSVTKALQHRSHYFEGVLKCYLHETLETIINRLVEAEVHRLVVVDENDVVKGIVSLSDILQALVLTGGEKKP
T1 sequence (P54646 whole entry): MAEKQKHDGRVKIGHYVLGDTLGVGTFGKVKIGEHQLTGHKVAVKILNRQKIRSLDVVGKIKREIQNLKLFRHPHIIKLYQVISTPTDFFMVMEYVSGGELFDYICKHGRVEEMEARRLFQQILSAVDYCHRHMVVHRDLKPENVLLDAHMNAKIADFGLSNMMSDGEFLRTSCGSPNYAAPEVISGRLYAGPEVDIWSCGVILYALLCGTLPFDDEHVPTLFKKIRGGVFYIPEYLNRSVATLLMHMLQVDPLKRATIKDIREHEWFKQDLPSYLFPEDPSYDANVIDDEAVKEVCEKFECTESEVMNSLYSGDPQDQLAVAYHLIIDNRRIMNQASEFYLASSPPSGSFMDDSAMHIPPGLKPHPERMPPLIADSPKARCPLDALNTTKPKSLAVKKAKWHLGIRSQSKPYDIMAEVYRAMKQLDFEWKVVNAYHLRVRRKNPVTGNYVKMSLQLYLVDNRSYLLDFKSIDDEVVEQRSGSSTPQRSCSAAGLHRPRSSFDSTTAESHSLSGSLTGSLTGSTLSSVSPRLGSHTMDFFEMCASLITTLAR
T1 sequence (O43741 whole entry partner): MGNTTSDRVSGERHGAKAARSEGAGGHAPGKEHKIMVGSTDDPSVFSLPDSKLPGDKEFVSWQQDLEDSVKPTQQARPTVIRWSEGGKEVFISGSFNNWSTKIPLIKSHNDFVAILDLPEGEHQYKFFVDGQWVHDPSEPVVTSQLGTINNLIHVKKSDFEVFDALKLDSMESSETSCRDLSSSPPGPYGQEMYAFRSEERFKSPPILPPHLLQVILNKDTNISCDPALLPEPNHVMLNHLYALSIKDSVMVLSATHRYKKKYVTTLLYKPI
Description: To study allosteric activation with a more well-defined AMPK complex, and to study the effects of mutations in individual adenine nucleotide-binding sites on the γ subunit, we expressed a human α2β2γ1 complex in Escherichia coli and purified it utilizing the polyhistidine tag at the N-terminus of the α2 subunit. […] However, it had not been co-expressed with an N-myristoyl transferase so would not have been N-myristoylated on the β2 subunit. The complex was expressed not only with the WT γ1 sequence but also with mutations affecting hydrophobic residues previously shown to be involved in binding of the adenine moieties of nucleotides at CBS1 (L129D/V130D), CBS3 (V276G/L277G) and CBS4 (I312G). All four complexes co-purified as heterotrimeric 1:1:1 complexes as expected, and were phosphorylated and activated equally well either by CaMKK2 or the LKB1: STRADα:MO25α complex (Supplementary Figure S2). For the studies described below we phosphorylated Thr172 using a GST-tagged CaMKK2 and repurified AMPK using size exclusion chromatography and a glutathione-Sepharose column, which remove CaMKK2.
Figure 4. Allosteric activation of WT and mutant human α2β2γ1 AMPK complex by AMP and ADP at three different concentrations of ATP. The α2β2γ1 complex was phosphorylated on Thr172 prior to assay using CaMKK2. The γ1 subunit was either (A/E): WT; (B/F): a CBS1 mutant (L129D/V130D); (C/G): a CBS3 mutant (V276G/L277G); (D/H): a CBS4 mutant (I312G). Results are means of duplicate assays ± SD; error bars are not shown if they were smaller than the symbols used for mean values. Assays and curve fitting were as in Figure 1 at either 0.2 mM (left panels) or 5 mM (right panels) ATP. Best-fit values for all parameters used to generate the curves are listed in Supplementary Table S1.
Sources of antibodies were as described: pThr172 (AMPK-α: Cell Signaling Technologies, Danvers, MA, U.S.A., Cat# 2535), AMPK-α2 [22]. Rat liver AMPK was purified as described previously. Plasmid encoding human (His)6-tagged AMPK (α2β2γ1, bacterially expressed) generated as in [23], was a gift from AstraZeneca, Cambridge, U.K. The L129D/V130D (CBS1), V276G/L277G (CBS3) and I312G (CBS4) mutations in the α2β2γ1 complex were generated using the Quikchange II site-directed mutagenesis kit (Agilent Technologies) and confirmed by DNA sequencing. Human GST-tagged α2 kinase domain (1–310), LKB1:STRAD-α:MO25-α complexes, GST-tagged CaMKK2 [26], and PPM1A (PP2Cα) were produced as described. Bacterially expressed heterotrimers were activated by phosphorylation of Thr172 by GST-tagged CaMKK2 in the presence of ATP, and CaMKK2 was subsequently removed by passage through glutathione-Sepharose. Human GST-tagged α2 kinase domain was activated in a similar manner except that human (His)6-tagged LKB1:STRAD-α:MO25-α complex was used and removed after activation via passage through a His-Trap column. Recombinant human 5′-nucleotidase, CD73, Cat # 5795-EN-01, was from R&D systems (Minneapolis, MN, U.S.A.).
AMPK assays measured the transfer of radioactivity from [γ-^33P]ATP to a peptide substrate, which was separated from unreacted ATP by binding to P81 paper. This assay was described previously except that we used [γ-^33P] rather than [γ-^32P]ATP. In some assays (specified in Figure legends) the concentration of ATP was increased from 0.2 to 1 or 5 mM ATP, with MgCl2 concentrations maintained at a constant 4.8 mM excess above the concentration of ATP [19]. Where allosteric activation by AMP or ADP was being studied, we used the SAMS peptide as substrate. For all other assays the AMARA peptide was used.

[2] = biological target: T2, phosphorylated human α2β2γ1 complex (WT) (Homo sapiens, UniProt P54619+P54646); assay: AMPK inactivation and Thr172 dephosphorylation by PP2Cα (PPM1A), WT; assay type: biochemical; details: 300 µM nucleotide, absence of ATP
T2 construct: made in house; host or cells: Escherichia coli
T2 sequence (P54619 whole entry): as the sequence (P54619 whole entry) above
T2 sequence (P54646 whole entry): as the sequence (P54646 whole entry) above
T2 sequence (O43741 whole entry partner): as the sequence (O43741 whole entry partner) above
Experimental: (§1) The relative roles of the three CBS sites in the other two mechanisms of activation of AMPK by AMP or ADP, i.e. promotion of Thr172 phosphorylation by LKB1, and protection against Thr172 dephosphorylation by protein phosphatases, have not been examined previously. As expected, incubation of the α2β2γ1 AMPK complex with a fixed, limiting amount of purified LKB1:STRADα:MO25α complex in the presence of 200 µM Mg.ATP^2− caused a large degree of activation (Figure 5A) and phosphorylation (Figure 5B) of AMPK (unphosphorylated α2β2γ1 complex), which were stimulated more than 2-fold by 300 µM AMP and 1.6-fold by 300 µM ADP.
(§2) Figure 6. Effects of AMP or ADP on AMPK inactivation and Thr172 dephosphorylation by PP2Cα (PPM1A). Human α2β2γ1 complexes (WT, or with L129D/V130D, V276G/L277G or I312G mutations affecting CBS1, CBS3 or CBS4 respectively), all phosphorylated on Thr172, were incubated with a fixed concentration of PP2Cα (PPM1A) in the presence or absence of AMP or ADP (both 300 µM) as described in the Materials and methods section. After the incubation, aliquots were withdrawn for (A) AMPK assay or (B) Western blots. […] For (B), due to a limit on the number of lanes that could be run on one gel, single replicates from the triplicate assays were analysed. […]

[3] = biological target: T3, human α2β2γ1 complex, CBS1 mutant (L129D/V130D) (Homo sapiens, UniProt P54619+P54646, L129D/V130D); assay: AMPK inactivation and Thr172 dephosphorylation by PPM1A, CBS1 mutant; assay type: biochemical; details: 300 µM nucleotide, absence of ATP
T3 construct: made in house; host or cells: Escherichia coli
T3 sequence (P54619 whole entry L129D/V130D): as the sequence (P54619 whole entry) above, with L129D, V130D counted along it
T3 sequence (P54646 whole entry): as the sequence (P54646 whole entry) above
T3 sequence (O43741 whole entry partner): as the sequence (O43741 whole entry partner) above
Experimental: as §1, §2

[4] = tested on: bacterially expressed AMPK; details: 5 mM Mg2+, 200 µM ATP, cited from earlier work

Nc1ncnc2c1ncn2[C@@H]1O[C@H](COP(=O)(O)OP(=O)(O)O)[C@@H](O)[C@H]1O [ADP]
Activation (maximal) ([1]; 0.2 mM ATP): did not cause allosteric activation and none
IC50 ([1]; 0.2 mM ATP): 2600 µM
maximal activation actually reached ([1]; 5 mM ATP): 1.6 fold
Activation (extrapolated maximal) ([1]; 5.0 mM ATP): 9.9 fold and 9.9 (2.8 -??) fold
IC50 ([1]; 5.0 mM ATP): 1200 µM
IC50/EC50 ([1]; 5.0 mM ATP): 1.5
EC50 ([1]; 5.0 mM ATP, read-out: EC50): 785 µM
EC50 ([1]; 5 mM ATP, read-out: EC50 for activation): 780 µM and 800 µM
inactivation and dephosphorylation of AMPK by PPM1A in the presence of nucleotide [2]: greatly reduced
protective effect of nucleotide against PPM1A in the mutant [3]: unaffected
effect on kinase activity ([4]; 200 µM ADP): a small inhibition
allosteric activation ([4]; any ADP concentration up to 200 µM): no allosteric activation

Nc1ncnc2c1ncn2[C@@H]1O[C@H](COP(=O)(O)O)[C@@H](O)[C@H]1O [AMP]
Activation (maximal) ([1]; 0.2 mM ATP): 2.6 fold and 2.6 (2.5-2.6) fold
IC50 ([1]; 0.2 mM ATP): 2600 µM
IC50/EC50 ([1]; 0.2 mM ATP): 2600
EC50 ([1]; 0.2 mM ATP, read-out: EC50): 0.99 µM and 1 µM
Activation (extrapolated maximal) ([1]; 5.0 mM ATP): 3.0 fold and 3.0 (2.9-3.1) fold
IC50 ([1]; 5.0 mM ATP): 52000 µM
IC50/EC50 ([1]; 5.0 mM ATP): 2700
EC50 ([1]; 5.0 mM ATP, read-out: EC50): 19 µM
inactivation and dephosphorylation of AMPK by PPM1A in the presence of nucleotide [2]: greatly reduced
protective effect of nucleotide against PPM1A in the mutant [3]: unaffected
allosteric activation ([4]; 200 µM AMP): ~2 fold
